“And” between values parts separate entries of the source, which are not always exact repeats. Equal values may be shown once. Read-outs that look alike come from different tables or passages of the source.
What was measured:
[1] = tested on: IgG and IgM antibody titres (serum); assay type: in vivo, Balb/c mice
[2] = tested on: IgG and IgM antibody titres (serum); assay: IgG and IgM antibody titres in mice vaccinated with Covishield, with or without oral CBD; conditions: for IgG, serum (CLIA, EIA) / IgM, serum (CLIA, EIA): individual mice (F/M); for augmentation of overall IgG response to vaccine by CBD / augmentation of overall IgM response to vaccine by CBD: CBD throughout or until vaccination, same magnitude, vs vaccine alone; for time after vaccine by which IgG and IgM responses were significantly elevated compared to mice not given CBD: CBD throughout the study or just until vaccine
[3] = 0 Day, group GII (CS): Covishild + CBD 102.5 mg/kg/d gavage day -7 to 28
[4] = 0 Day, group GIII (CS): Covishild + CBD 102.5 mg/kg/d gavage day -7 to 0, then discontinued
[5] = 7th Day, group GII (CS): Covishild + CBD 102.5 mg/kg/d gavage day -7 to 28
[6] = 7th Day, group GIII (CS): Covishild + CBD 102.5 mg/kg/d gavage day -7 to 0, then discontinued
[7] = 14 Day, group GII (CS): Covishild + CBD 102.5 mg/kg/d gavage day -7 to 28
[8] = 14 Day, group GIII (CS): Covishild + CBD 102.5 mg/kg/d gavage day -7 to 0, then discontinued

## C=C(C)[C@@H]1CCC(C)=C[C@H]1c1c(O)cc(CCCCC)cc1O [CBD Formulation, Cannabidiol]
[1]; 0 Day
  IgG, serum (CLIA, EIA): 7.4 IU/mL and 6.8 IU/mL and 7.2 IU/mL and 7.1 IU/mL and 9.2 IU/mL and 7.5 IU/mL and 8.21 IU/mL
[1]; 14 Day
  IgG, serum (CLIA, EIA): 7.2 IU/mL and 6.4 IU/mL and 7.1 IU/mL and 7.4 IU/mL and 6 IU/mL and 9.1 IU/mL and 7 IU/mL and 7.3 IU/mL
  IgM, serum (CLIA, EIA): 9.3 AU/mL and 9.8 AU/mL and 10.2 AU/mL and 10.3 AU/mL and 9 AU/mL and 10.4 AU/mL and 9.2 AU/mL
[1]; 21 Day
  IgG, serum (CLIA, EIA): 7.3 IU/mL and 7.1 IU/mL and 7.5 IU/mL and 7.2 IU/mL and 9.1 IU/mL and 7 IU/mL and 7.4 IU/mL
[1]; mouse, in vivo
  IgG, serum (CLIA, EIA): 7.2 IU/mL and 7.1 IU/mL and 7.3 IU/mL and 6.9 IU/mL and 9.2 IU/mL and 7.5 IU/mL and 8.21 IU/mL
  IgM, serum (CLIA, EIA): 10.2 AU/mL and 9.8 AU/mL and 10 AU/mL and 10.1 AU/mL and 10.3 AU/mL
  augmentation by CBD of the response to Covaxin compared with Covishield: tended to be less
  day at which a rise in IgM was seen: 7 days
  day at which a significant rise in IgG and IgM was apparent: 7 days
  day by which a rise in IgG was seen: ≤ 14 days
  overall IgM response to Covaxin versus Covaxin alone: augmented
[2]; [3]
  IgG, serum (CLIA, EIA): 7.4 IU/mL and 7.8 IU/mL and 7.1 IU/mL (2×) and 6.8 IU/mL and 6.4 IU/mL
  IgM, serum (CLIA, EIA): 9.2 AU/mL (2×) and 8.2 AU/mL and 10.1 AU/mL and 9.4 AU/mL and 8.8 AU/mL
[2]; [4]
  IgG, serum (CLIA, EIA): 7.5 IU/mL and 6.8 IU/mL (2×) and 6.5 IU/mL and 7.21 IU/mL and 7.2 IU/mL
  IgM, serum (CLIA, EIA): 9.4 AU/mL and 9.3 AU/mL (3×) and 9.2 AU/mL and 9.1 AU/mL
[2]; [5]
  IgG, serum (CLIA, EIA): 7.4 IU/mL and 7.5 IU/mL and 8.2 IU/mL and 7.3 IU/mL (2×) and 7.8 IU/mL
  IgM, serum (CLIA, EIA): 10.2 AU/mL and 8.2 AU/mL and 10.11 AU/mL and 10.5 AU/mL and 10.4 AU/mL
[2]; [6]
  IgG, serum (CLIA, EIA): 7.4 IU/mL and 6.9 IU/mL and 7.3 IU/mL (2×) and 7.2 IU/mL and 7.1 IU/mL
  IgM, serum (CLIA, EIA): 9.2 AU/mL and 9.6 AU/mL and 10.1 AU/mL and 10.2 AU/mL and 10.3 AU/mL
[2]; [7]
  IgG, serum (CLIA, EIA): 7.5 IU/mL and 7.8 IU/mL (3×) and 7.6 IU/mL and 8.2 IU/mL
  IgM, serum (CLIA, EIA): 10.5 AU/mL and 10.15 AU/mL and 10.52 AU/mL
[2]; [8]
  IgG, serum (CLIA, EIA): 7.5 IU/mL (2×) and 7.6 IU/mL and 7.3 IU/mL and 7.8 IU/mL and 7.9 IU/mL
  IgM, serum (CLIA, EIA): 10.1 AU/mL and 10.5 AU/mL and 10.3 AU/mL (2×)
[2]; 21 Day, group GII (CS): Covishild + CBD 102.5 mg/kg/d gavage day -7 to 28
  IgG, serum (CLIA, EIA): 7.8 IU/mL (2×) and 7.1 IU/mL and 7.5 IU/mL and 7.9 IU/mL and 8.1 IU/mL
[2]; 21 Day, group GIII (CS): Covishild + CBD 102.5 mg/kg/d gavage day -7 to 0, then discontinued
  IgG, serum (CLIA, EIA): 7.6 IU/mL (2×) and 8.1 IU/mL (3×) and 7.8 IU/mL
[2]; FIG. 2C, average overall response over 28 days
  augmentation of overall IgG response to vaccine by CBD: 15%
[2]; FIG. 2D, average overall response over 28 days
  augmentation of overall IgM response to vaccine by CBD: 25%
[2]; FIG. 2I, AUC over 28 days, female mice
  augmentation of overall IgG response to vaccine by CBD: 13%
[2]; FIG. 2J, AUC over 28 days, female mice
  augmentation of overall IgM response to vaccine by CBD: 21%
[2]; FIGS. 2E and 2F
  time after vaccine by which IgG and IgM responses were significantly elevated compared to mice not given CBD: ≤ 7 days
[2]; FIGS. 2K and 2L, female mice, CBD given throughout the trial
  IgG response at day 7 versus vehicle (no CBD) group: significantly better IgG response
[2]; FIGS. 2K and 2L, female mice
  time after vaccine by which IgG and IgM responses were significantly elevated compared to mice not given CBD: ≤ 14 days
[2]; compared with vaccine without CBD, whose titres did not rise, up to day 28
  course of antibody titres in mice given vaccine plus CBD: rose and remained elevated until day 28

Source: US20250281606A1 (AKSEERA PHARMA CORP., priority 2020, published 2025)
